From patent publication US11655225B2, “Antimycobacterial heterocyclic amides” (Crestone, Inc., priority 2018, dated 2023)
Converted amounts (≈) assume the structure as drawn.

System: M. abscessus
Experiment: MIC determination, CLSI M24-A
Assay type: cell-based
Conditions: Mycobacteroides abscessus, CLSI M24-A

`CC12CC3CC(C)(C1)CC(C(=O)Nc1nc4cc(Cl)c(Cl)cc4[nH]1)(C3)C2` [Example 164, N-(5,6-dichloro-1H-1,3-benzodiazol-2-yl)-3,5-dimethyladamantane-1-carboxamide] was tested, and the MIC was 2 to 32 µg/mL (≈ 5.1 to 81.6 µM).

`CC1CC(C(=O)Nc2nc3c(F)cc(F)cc3o2)CC(C)(C)C1` (stereo not shown) [Example 189, N-(4,6-difluoro-1,3-benzoxazol-2-yl)-3,3,5-trimethylcyclohexane-1-carboxamide] gave an MIC of 2 to 32 µg/mL (≈ 6.2 to 99.3 µM).

Work on `O=C(Nc1nc2c(F)cc(F)cc2s1)C1CCCCCCC1` [Example 109, N-(4,6-difluoro-1,3-benzothiazol-2-yl)cyclooctanecarboxamide] yielded an MIC of 2 to 32 µg/mL (≈ 6.17 to 98.6 µM).

With `O=C(Nc1nc2ccccc2o1)C12CC3CC(CC(C3)C1)C2` [Example 155, N-(1,3-benzoxazol-2-yl)adamantane-1-carboxamide] the MIC was 2 to 32 µg/mL (≈ 6.75 to 108 µM).

`CC1CCCC(C(=O)Nc2nc3ccccc3s2)C1` (stereo not shown) [Example 182, N-(1,3-benzothiazol-2-yl)-3-methylcyclohexane-1-carboxamide] was tested, and the MIC was 2 to 32 µg/mL (≈ 7.29 to 117 µM).

In the case of `Cc1cc(C)c2oc(NC(=O)C34CC5CC(C)(CC(C)(C5)C3)C4)nc2c1` [Example 161, N-(5,7-dimethyl-1,3-benzoxazol-2-yl)-3,5-dimethyladamantane-1-carboxamide], the MIC is reported as 2 to 32 µg/mL (≈ 5.67 to 90.8 µM).

In the case of `CCOc1ccc2nc(NC(=O)C34CC5CC(C)(CC(C)(C5)C3)C4)sc2c1` [Example 111, N-(6-ethoxy-1,3-benzothiazol-2-yl)-3,5-dimethyladamantane-1-carboxamide], the MIC is reported as 2 to 32 µg/mL (≈ 5.2 to 83.2 µM).

Work on `Cc1cccc2sc(NC(=O)C3CC4CCC3C4)nc12` (stereo not shown) [Example 183, N-(4-methyl-1,3-benzothiazol-2-yl)bicyclo[2.2.1]heptane-2-carboxamide] yielded an MIC of 2 to 32 µg/mL (≈ 6.98 to 112 µM).

`CC1(C(=O)Nc2cc3ccccc3s2)CCCCC1` [Example 105, N-(1-benzothiophen-2-yl)-1-methylcyclohexane-1-carboxamide] showed an MIC of 2 to 32 µg/mL (≈ 7.32 to 117 µM).

`O=C(Nc1nc2ccc(OC(F)(F)F)cc2s1)C1CCCCC1` [Example 188, N-[6-(trifluoromethoxy)-1,3-benzothiazol-2-yl]cyclohexanecarboxamide] was tested, and the MIC was 2 to 32 µg/mL (≈ 5.81 to 92.9 µM).

Compound `CC1CC(C(=O)Nc2nc3ccc(C(F)(F)F)cc3o2)CC(C)(C)C1` (stereo not shown) [Example 163, 3,3,5-trimethyl-N-[6-(trifluoromethyl)-1,3-benzoxazol-2-yl]cyclohexane-1-carboxamide] has an MIC of 2 to 32 µg/mL (≈ 5.64 to 90.3 µM).

In the case of `CC1CC(C(=O)Nc2nc3cc(Cl)ccc3o2)CC(C)(C)C1` (stereo not shown) [Example 114, N-(5-chloro-1,3-benzoxazol-2-yl)-3,3,5-trimethylcyclohexane-1-carboxamide], the MIC is reported as 2 to 32 µg/mL (≈ 6.23 to 99.7 µM).

For `COc1ccc2nc(NC(=O)C3CC(C)CC(C)(C)C3)oc2c1` (stereo not shown) [Example 162, N-(6-methoxy-1,3-benzoxazol-2-yl)-3,3,5-trimethylcyclohexane-1-carboxamide], the MIC was 2 to 32 µg/mL (≈ 6.32 to 101 µM).

In the case of `O=C(Nc1nc2ccc(Cl)cc2s1)C1CCCCCCC1` [Example 110, N-(6-chloro-1,3-benzothiazol-2-yl)cyclooctanecarboxamide], the MIC is reported as 2 to 32 µg/mL (≈ 6.19 to 99.1 µM).

`O=C(Nc1nc2ccccc2o1)C1C2CC3CC(C2)CC1C3` (stereo not shown) [Example 131, N-(1,3-benzoxazol-2-yl)adamantane-2-carboxamide] showed an MIC of 2 to 32 µg/mL (≈ 6.75 to 108 µM).

For `CC1CC(C(=O)Nc2nc3cccc(O)c3s2)CC(C)(C)C1` (stereo not shown) [Example 174, N-(7-hydroxy-1,3-benzothiazol-2-yl)-3,3,5-trimethylcyclohexane-1-carboxamide], the MIC was 2 to 32 µg/mL (≈ 6.28 to 100 µM).

Compound `Cc1cc2nc(NC(=O)C3(C)CCCCC3)sc2c(C)c1Br` [Example 106, N-(6-bromo-5,7-dimethyl-1,3-benzothiazol-2-yl)-1-methylcyclohexane-1-carboxamide] has an MIC of 2 to 32 µg/mL (≈ 5.24 to 83.9 µM).

`CC1CC(C(=O)Nc2nc3ccc(SC(F)(F)F)cc3s2)CC(C)(C)C1` (stereo not shown) [Example 177, 3,3,5-trimethyl-N-{6-[(trifluoromethyl)sulfanyl]-1,3-benzothiazol-2-yl}cyclohexane-1-carboxamide] gave an MIC of 2 to 32 µg/mL (≈ 4.97 to 79.5 µM).

Work on `CC1CC(C(=O)Nc2nc3ccc(Br)cc3o2)CC(C)(C)C1` (stereo not shown) [Example 158, N-(6-bromo-1,3-benzoxazol-2-yl)-3,3,5-trimethylcyclohexane-1-carboxamide] yielded an MIC of 2 to 32 µg/mL (≈ 5.48 to 87.6 µM).

`CC1(C(=O)Nc2nc3cc(Br)ccc3s2)CCCC1` [Example 153, N-(5-bromo-1,3-benzothiazol-2-yl)-1-methylcyclopentane-1-carboxamide] was tested, and the MIC was 2 to 32 µg/mL (≈ 5.9 to 94.3 µM).

Work on `CC1CC(C(=O)Nc2nc3cc(Cl)c(Cl)cc3o2)CC(C)(C)C1` (stereo not shown) [Example 113, N-(5,6-dichloro-1,3-benzoxazol-2-yl)-3,3,5-trimethylcyclohexane-1-carboxamide] yielded an MIC of 2 to 32 µg/mL (≈ 5.63 to 90.1 µM).

`C[C@]1(C(=O)Nc2nc3ccc(OC(F)(F)F)cc3s2)C[C@@H]2C=C[C@H]1C2` [Example 129, (1R,2S,4R)-2-methyl-N-[6-(trifluoromethoxy)-1,3-benzothiazol-2-yl]bicyclo[2.2.1]hept-5-ene-2-carboxamide] gave an MIC of 2 to 32 µg/mL (≈ 5.43 to 86.9 µM).

With `O=C(Nc1nc2c(F)c(F)c(F)cc2s1)C1CCCCCCC1` [Example 116, N-(4,5,6-trifluoro-1,3-benzothiazol-2-yl)cyclooctanecarboxamide] the MIC was 2 to 32 µg/mL (≈ 5.84 to 93.5 µM).

Compound `CC1CC(C(=O)Nc2nc3ccc(Cl)cc3o2)CC(C)(C)C1` (stereo not shown) [Example 118, N-(6-chloro-1,3-benzoxazol-2-yl)-3,3,5-trimethylcyclohexane-1-carboxamide] has an MIC of 2 to 32 µg/mL (≈ 6.23 to 99.7 µM).

`CC1(C(=O)Nc2nc3ccc(Cl)cc3s2)CCCCC1` [Example 135, N-(6-chloro-1,3-benzothiazol-2-yl)-1-methylcyclohexane-1-carboxamide] was tested, and the MIC was 2 to 32 µg/mL (≈ 6.48 to 104 µM).

With `CC12CC3CC(C)(C1)CC(C(=O)Nc1nc4ccc(F)cc4[nH]1)(C3)C2` [Example 120, N-(6-fluoro-1H-1,3-benzodiazol-2-yl)-3,5-dimethyladamantane-1-carboxamide] the MIC was 2 to 32 µg/mL (≈ 5.86 to 93.7 µM).

Compound `CC1CC(C(=O)Nc2nc3cc(Br)ccc3s2)CC(C)(C)C1` (stereo not shown) [Example 190, N-(5-bromo-1,3-benzothiazol-2-yl)-3,3,5-trimethylcyclohexane-1-carboxamide] has an MIC of 2 to 32 µg/mL (≈ 5.24 to 83.9 µM).

Work on `COc1ccc2nc(NC(=O)C34CC5CC(C)(CC(C)(C5)C3)C4)sc2c1` [Example 124, N-(6-methoxy-1,3-benzothiazol-2-yl)-3,5-dimethyladamantane-1-carboxamide] yielded an MIC of 2 to 32 µg/mL (≈ 5.4 to 86.4 µM).

For `O=C(Nc1nc2ccc(C(F)(F)F)cc2s1)C1CCCC2(CC2)C1` (stereo not shown) [Example 148, N-[6-(trifluoromethyl)-1,3-benzothiazol-2-yl]spiro[2.5]octane-5-carboxamide], the MIC was 2 to 32 µg/mL (≈ 5.64 to 90.3 µM).

Work on `CC1(C(=O)Nc2nc3c(F)c(F)c(F)cc3s2)CCCCC1` [Example 154, 1-methyl-N-(4,5,6-trifluoro-1,3-benzothiazol-2-yl)cyclohexane-1-carboxamide] yielded an MIC of 2 to 32 µg/mL (≈ 6.09 to 97.5 µM).

With `CC1(C(=O)Nc2nc3ccc(OC(F)(F)F)cc3s2)CCCC1` [Example 136, 1-methyl-N-[6-(trifluoromethoxy)-1,3-benzothiazol-2-yl]cyclopentane-1-carboxamide] the MIC was 2 to 32 µg/mL (≈ 5.81 to 92.9 µM).

With `CC1CC(C(=O)Nc2nc3ccccc3s2)CC(C)(C)C1` (stereo not shown) [Example 125, N-(1,3-benzothiazol-2-yl)-3,3,5-trimethylcyclohexane-1-carboxamide] the MIC was 2 to 32 µg/mL (≈ 6.61 to 106 µM).

Work on `CC12CC3CC(C)(C1)CC(C(=O)Nc1nc4ccc(F)cc4s1)(C3)C2` [Example 123, N-(6-fluoro-1,3-benzothiazol-2-yl)-3,5-dimethyladamantane-1-carboxamide] yielded an MIC of 2 to 32 µg/mL (≈ 5.58 to 89.3 µM).

For `CC1CCCCC1C(=O)Nc1nc2ccccc2s1` (stereo not shown) [Example 166, N-(1,3-benzothiazol-2-yl)-2-methylcyclohexane-1-carboxamide], the MIC was 2 to 32 µg/mL (≈ 7.29 to 117 µM).
